# Measurements from publication PMC6934184, “Selective DNA-PKcs inhibition extends the therapeutic index of localized radiotherapy and chemotherapy” (The Journal of Clinical Investigation, 2019).
# Target: T1, MAPKAPK3 (Homo sapiens, UniProt Q16644)
# T1 construct: purchased Thermo Fisher Scientific (Life Technologies) SelectScreen
# Assay: SelectScreen Z'LYTE
# Format: biochemical
# Outline: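 NU5455 was profiled across the SelectScreen Broad panel of kinase activity and binding assays. Z'LYTE reactions such as CSF1R ran at apparent Km ATP, while the Adapta CAMK1 assay used ATP listed as 10. Values are given as percent.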
# T1 sequence (Q16644 whole entry): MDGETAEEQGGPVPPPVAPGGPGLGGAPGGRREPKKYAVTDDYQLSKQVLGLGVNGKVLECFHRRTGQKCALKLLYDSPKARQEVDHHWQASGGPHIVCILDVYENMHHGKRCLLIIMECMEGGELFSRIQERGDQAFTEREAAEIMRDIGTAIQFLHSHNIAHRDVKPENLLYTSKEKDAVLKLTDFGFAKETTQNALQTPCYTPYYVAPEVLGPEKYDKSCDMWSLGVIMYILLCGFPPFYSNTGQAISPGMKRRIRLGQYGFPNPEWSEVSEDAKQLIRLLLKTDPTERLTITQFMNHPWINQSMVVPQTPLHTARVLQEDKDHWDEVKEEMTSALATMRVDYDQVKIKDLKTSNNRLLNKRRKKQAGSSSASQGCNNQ
structure (smiles),measurement,value
CN(C(=O)CN1CCOCC1)c1ccc2sc3c(-c4cccc5c(=O)cc(N6CC7CCC(C6)O7)oc45)cccc3c2c1 [NU5455],inhibition at 1 µM,1.4%
